Key:
clinical [1] = conditions: human, plasma, intravenous, full evaluable population
clinical [2] = conditions: human, in vivo

Compound: Cc1cccc([C@H](C)c2cnc[nH]2)c1C [dexmedetomidine]
- Cmax (clinical [1]; Cmax, Table 30 key summary (mean), Dose Level 4, LD 1.00/CD 2.00 μg/kg/hr): 3.09 ng/mL
- Tmax (clinical [1]; Tmax Mean, Dose Level 1, LD 0.25/CD 0.2 μg/kg/hr): 7.31 h
- Tmax (clinical [1]; Tmax Mean, Dose Level 2, LD 0.50/CD 0.4 μg/kg/hr): 8.8 h
- Tmax (clinical [1]; Tmax Mean, Dose Level 3, LD 1.00/CD 0.7 μg/kg/hr): 2.17 h
- Tmax (clinical [1]; Tmax Mean, Dose Level 4, LD 1.00/CD 2.00 μg/kg/hr): 6.82 h
- Tmax (clinical [1]; Tmax Median, Dose Level 1, LD 0.25/CD 0.2 μg/kg/hr): 6.04 h
- Tmax (clinical [1]; Tmax Median, Dose Level 2, LD 0.50/CD 0.4 μg/kg/hr): 5.68 h
- Tmax (clinical [1]; Tmax Median, Dose Level 3, LD 1.00/CD 0.7 μg/kg/hr): 0.367 h
- Tmax (clinical [1]; Tmax Median, Dose Level 4, LD 1.00/CD 2.00 μg/kg/hr): 5.42 h
- Vd (clinical [1]; Vd Mean, Dose Level 1, LD 0.25/CD 0.2 μg/kg/hr): 62 L
- Vd (clinical [1]; Vd Mean, Dose Level 2, LD 0.50/CD 0.4 μg/kg/hr): 50.6 L
- Vd (clinical [1]; Vd Mean, Dose Level 3, LD 1.00/CD 0.7 μg/kg/hr): 52.3 L
- Vd (clinical [1]; Vd Mean, Dose Level 4, LD 1.00/CD 2.00 μg/kg/hr): 62.2 L
- Vd (clinical [1]; Vd Median, Dose Level 2, LD 0.50/CD 0.4 μg/kg/hr): 40.7 L
- Vd (clinical [1]; Vd Median, Dose Level 3, LD 1.00/CD 0.7 μg/kg/hr): 51.3 L
- Vd (clinical [1]; Vd Median, Dose Level 4, LD 1.00/CD 2.00 μg/kg/hr): 57.8 L
- Vd (clinical [1]; Vd, Table 30 key summary (mean), Dose Level 1, LD 0.25/CD 0.2 μg/kg/hr): 62 L
- Vd (clinical [1]; Vd, Table 30 key summary (mean), Dose Level 2, LD 0.50/CD 0.4 μg/kg/hr): 50.6 L
- Vd (clinical [1]; Vd, Table 30 key summary (mean), Dose Level 3, LD 1.00/CD 0.7 μg/kg/hr): 52.3 L
- Vd (clinical [1]; Vd, Table 30 key summary (mean), Dose Level 4, LD 1.00/CD 2.00 μg/kg/hr): 62.2 L
- Vd (clinical [1]; Vss Mean, Dose Level 1, LD 0.25/CD 0.2 μg/kg/hr): 56.8 L
- Vd (clinical [1]; Vss Mean, Dose Level 3, LD 1.00/CD 0.7 μg/kg/hr): 32.8 L
- Vd (clinical [1]; Vss Mean, Dose Level 4, LD 1.00/CD 2.00 μg/kg/hr): 43.7 L
- Vd (clinical [1]; Vss Median, Dose Level 1, LD 0.25/CD 0.2 μg/kg/hr): 40.3 L
- Vd (clinical [1]; Vss Median, Dose Level 2, LD 0.50/CD 0.4 μg/kg/hr): 30.6 L
- Vd (clinical [1]; Vss Median, Dose Level 3, LD 1.00/CD 0.7 μg/kg/hr): 30.4 L
- Vd (clinical [1]; Vss Median, Dose Level 4, LD 1.00/CD 2.00 μg/kg/hr): 33.1 L
- clearance (clinical [1]; Weight-adjusted CL Mean, Dose Level 1, LD 0.25/CD 0.2 μg/kg/hr): 17.3 mL/min/kg
- clearance (clinical [1]; Weight-adjusted CL Mean, Dose Level 2, LD 0.50/CD 0.4 μg/kg/hr): 15.7 mL/min/kg
- clearance (clinical [1]; Weight-adjusted CL Mean, Dose Level 3, LD 1.00/CD 0.7 μg/kg/hr): 14 mL/min/kg
- clearance (clinical [1]; Weight-adjusted CL Mean, Dose Level 4, LD 1.00/CD 2.00 μg/kg/hr): 14.2 mL/min/kg
- clearance (clinical [1]; Weight-adjusted CL Median, Dose Level 1, LD 0.25/CD 0.2 μg/kg/hr): 19.9 mL/min/kg
- clearance (clinical [1]; Weight-adjusted CL Median, Dose Level 2, LD 0.50/CD 0.4 μg/kg/hr): 14.7 mL/min/kg
- clearance (clinical [1]; Weight-adjusted CL Median, Dose Level 3, LD 1.00/CD 0.7 μg/kg/hr): 14.7 mL/min/kg
- clearance (clinical [1]; Weight-adjusted CL Median, Dose Level 4, LD 1.00/CD 2.00 μg/kg/hr): 13.4 mL/min/kg
- clearance (clinical [1]; Weight-adjusted CL, Table 30 key summary (mean), Dose Level 1, LD 0.25/CD 0.2 μg/kg/hr): 16.7 mL/min/kg
- clearance (clinical [1]; Weight-adjusted CL, Table 30 key summary (mean), Dose Level 2, LD 0.50/CD 0.4 μg/kg/hr): 15 mL/min/kg
- clearance (clinical [1]; Weight-adjusted CL, Table 30 key summary (mean), Dose Level 3, LD 1.00/CD 0.7 μg/kg/hr): 13.3 mL/min/kg
- clearance (clinical [1]; Weight-adjusted CL, Table 30 key summary (mean), Dose Level 4, LD 1.00/CD 2.00 μg/kg/hr): 13.3 mL/min/kg
- Vd (clinical [1]; Weight-adjusted Vd Mean, Dose Level 1, LD 0.25/CD 0.2 μg/kg/hr): 2.17 L/kg
- Vd (clinical [1]; Weight-adjusted Vd Mean, Dose Level 2, LD 0.50/CD 0.4 μg/kg/hr): 2.31 L/kg
- Vd (clinical [1]; Weight-adjusted Vd Mean, Dose Level 3, LD 1.00/CD 0.7 μg/kg/hr): 2.44 L/kg
- Vd (clinical [1]; Weight-adjusted Vd Mean, Dose Level 4, LD 1.00/CD 2.00 μg/kg/hr): 2.48 L/kg
- Vd (clinical [1]; Weight-adjusted Vd Median, Dose Level 1, LD 0.25/CD 0.2 μg/kg/hr): 2.43 L/kg
- Vd (clinical [1]; Weight-adjusted Vd Median, Dose Level 2, LD 0.50/CD 0.4 μg/kg/hr): 2.49 L/kg
- Vd (clinical [1]; Weight-adjusted Vd Median, Dose Level 3, LD 1.00/CD 0.7 μg/kg/hr): 2.19 L/kg
- Vd (clinical [1]; Weight-adjusted Vd Median, Dose Level 4, LD 1.00/CD 2.00 μg/kg/hr): 2.15 L/kg
- Vd (clinical [1]; Weight-adjusted Vd, Table 30 key summary (mean), Dose Level 1, LD 0.25/CD 0.2 μg/kg/hr): 2.2 L/kg
- Vd (clinical [1]; Weight-adjusted Vd, Table 30 key summary (mean), Dose Level 2, LD 0.50/CD 0.4 μg/kg/hr): 2.3 L/kg
- Vd (clinical [1]; Weight-adjusted Vd, Table 30 key summary (mean), Dose Level 3, LD 1.00/CD 0.7 μg/kg/hr): 2.4 L/kg
- Vd (clinical [1]; Weight-adjusted Vd, Table 30 key summary (mean), Dose Level 4, LD 1.00/CD 2.00 μg/kg/hr): 2.5 L/kg
- half-life (clinical [1]; t1/2, Table 30 key summary (mean), Dose Level 1, LD 0.25/CD 0.2 μg/kg/hr): 1.5 h
- half-life (clinical [1]; t1/2, Table 30 key summary (mean), Dose Level 2, LD 0.50/CD 0.4 μg/kg/hr): 1.7 h
- half-life (clinical [1]; t1/2, Table 30 key summary (mean), Dose Level 3, LD 1.00/CD 0.7 μg/kg/hr): 2 h
- half-life (clinical [1]; t1/2, Table 30 key summary (mean), Dose Level 4, LD 1.00/CD 2.00 μg/kg/hr): 2.1 h
- half-life (clinical [1]; t1/2 Mean, Dose Level 1, LD 0.25/CD 0.2 μg/kg/hr): 1.55 h
- half-life (clinical [1]; t1/2 Mean, Dose Level 2, LD 0.50/CD 0.4 μg/kg/hr): 1.74 h
- half-life (clinical [1]; t1/2 Mean, Dose Level 3, LD 1.00/CD 0.7 μg/kg/hr): 2.04 h
- half-life (clinical [1]; t1/2 Mean, Dose Level 4, LD 1.00/CD 2.00 μg/kg/hr): 2.14 h
- half-life (clinical [1]; t1/2 Median, Dose Level 1, LD 0.25/CD 0.2 μg/kg/hr): 1.56 h
- half-life (clinical [1]; t1/2 Median, Dose Level 2, LD 0.50/CD 0.4 μg/kg/hr): 1.69 h
- half-life (clinical [1]; t1/2 Median, Dose Level 3, LD 1.00/CD 0.7 μg/kg/hr): 1.79 h
- half-life (clinical [1]; t1/2 Median, Dose Level 4, LD 1.00/CD 2.00 μg/kg/hr): 2.12 h
- clearance (clinical [2]; Cl Mean): 171 mL/min
- clearance (clinical [2]; Cl Median): 162 mL/min
- Vd (clinical [2]; Vd Mean): 30.5 L
- Vd (clinical [2]; Vd Median): 29.1 L
- half-life (clinical [2]; apparent (mean) t1/2): 2.33 h
- half-life (clinical [2]; t1/2, Mean): 2.33 h
- half-life (clinical [2]; t1/2 Median): 1.87 h
